Source: patent US9897592B2, “Methods for identifying arthropod repellents and attractants, and compounds and compositions identified by such methods” (The Regents of the University of California, priority 2013, dated 2018)
Where a name gives a salt, the structure may show the parent alone.

System: cpA neuron
Assay: Single-sensillum recording: activation of cpA neuron by odorants
Format: cell-based, Aedes aegypti
Conditions: for Activation (spikes s^−1): A. aegypti cpA, 0.5-s pulses, odorants 10^−2 in paraffin oil or water, solvent response subtracted; for Activation (spikes s−1): cpA neuron, 20 compounds from the top 200 SVM ligand predictions, negative values = inhibition, N = 4
Protocol: FIG. 3b depicts representative traces and mean responses of the A. aegypti cpA neuron to 0.5-s pulses of 138 predicted compounds screened using single-sensillum recordings, in which odorants were diluted to 10^−2 in paraffin oil or water, and responses to solvent have been subtracted, n=2-6, and error bars are s.d.
FIG. 5f is a bar graph illustrating the mean responses of the A. aegypti cpA neuron to 0.5-s pulses of 22 newly predicted compounds screened as in FIG. 3b, where salmon bars correspond to odorants found in human odor, odorants were diluted to 10^−2 in paraffin oil or water, and responses to solvent have been subtracted, and n=2-5.
Adult female A. aegypti (Linnaeus 1762) (Rockefeller strain) A. gambiae sensu stricto Giles 1902 (G3 strain), or C. quinquefasciatus Say 1823 were tested 3-12 days post-emergence with single-sensillum extracellular recordings. Chemicals were obtained from Sigma-Aldrich at the highest purity (typically >99%) and were dissolved in paraffin oil or water. […] Response to clean beads was subtracted from the results reported. Only sensilla with cpA activity of <20 spikes s^−1 to negative control were considered for analysis.
CpA-off and sham treated mosquitoes were pre-treated for 3 min in an upended 1 L glass dish in which 100 μl of fresh butyryl chloride (1%) or paraffin oil was allowed to vaporize for 10-20 min. The odor delivery system for different screens is shown in FIG. 7b; solvent responses during the same recording session were subtracted. Inhibition screen was tested. For the ultra-prolonged activator the 3-s stimulus was delivered from a 10 ml disposable pipette using a CS-55 stimulus controller (Syntech), CO2 was delivered, and responses to subsequent odor stimuli were calculated by subtracting baseline activity 1 s prior to each stimulus. When responses to repeated pulses of cyclopentanone and CO2 were compared, baseline activity between seconds 5 and 6 following each stimulus was subtracted. Spike counting was done manually or with Igor Pro6.2 (Wavemetrics) with the Neuromatic v2.00 macro (by Jason Rothman), and peak-to-peak spike amplitudes for FIG. 8 were analysed in Clampfit 10.3 (Molecular Devices).
From the large list of cpA receptor ligands predicted from Example 3 above, 138 compounds were selected based on desirable criteria for application such as smell, presence in natural sources, human safety profile, and cost to procure. These compounds were tested individually using single-sensillum electrophysiology on the cp sensillum of female A. aegypti, according to the procedure described in Example 1 above.

Row | SMILES | Activation (spikes s^−1) | Activation (spikes s−1)
1 | c1cnc2cccnc2c1 [1,5-naphthyridine] | 1.5 | 
2 | CC(=O)c1ccc[nH]1 [1-(1H-pyrrol-2-yl)ethanone] | 1.5 | 
3 | CC(=O)C1=NCCS1 [1-(4,5-dihydro-1,3-thiazol-2-yl)ethanone] | 8.0 | 
4 | Cn1cccc1 [1-methylpyrrole] | 54.2 | 
5 | C=CCCC [1-pentene] |  | 10.3
6 | CCCC(=O)c1ccccc1 [1-phenylbutan-1-one] | 1.5 | 
7 | CCC(O)c1ccccc1 (centres unmarked) [1-phenylpropan-1-ol] | −3.5 | 
8 | CC(=O)c1ccncc1 [1-pyridin-4-ylethanone] | 3.5 | 
9 | O=Cc1cnc[nH]1 [1H-imidazole-5-carbaldehyde] | 2.5 | 
10 | c1cc[nH]c1 [1H-pyrrole] | 89.8 | 
11 | CCc1nccnc1CC [2,3-diethylpyrazine] | −15.5 | 
12 | C=C(C)C(=C)C [2,3-dimethylbuta-1,3-diene] | 10.0 | 
13 | Cc1csc(C)n1 [2,4-dimethyl-1,3-thiazole] |  | 39.0
14 | Cc1ccc(C)s1 [2,5-dimethylthiophene] |  | 0.3
15 | CC1CCCC(C)N1 (centres unmarked) [2,6-dimethylpiperidine] | 2.5 | 
16 | Cc1cncc(C)n1 [2,6-dimethylpyrazine] | 14.8 | 
17 | CC(C)Cc1nccs1 [2-(2-methylpropyl)-1,3-thiazole] | 12.0 | 
18 | Cc1ncsc1CCO [2-(4-methyl-1,3-thiazol-5-yl)ethanol] | 4.5 | 
19 | CCOCc1cnccn1 [2-(ethoxymethyl)pyrazine] | −8.0 | 
20 | CC(C)SCc1ccco1 [2-(propan-2-ylsulfanylmethyl)furan] | −0.5 | 
21 | C[N+](C)(C)CC(=O)[O-] [2-(trimethylazaniumyl)acetate] | 2.5 | 

Row | SMILES | Activation (spikes s^−1) | Activation (spikes s−1)
22 | CCC(C)C(N)C(=O)O (centres unmarked) [2-amino-3-methylpentanoic acid] | −2.5 | 
23 | CCC(N)C(=O)O (centres unmarked) [2-aminobutanoic acid] | −3.0 | 
24 | CC(N)C(=O)O (centres unmarked) [2-aminopropanoic acid] | −1.5 | 
25 | CCC(C)c1nccnc1OC (centres unmarked) [2-butan-2-yl-3-methoxypyrazine] | −10.5 | 
26 | CCOC1CCCO1 (centres unmarked) [2-ethoxyoxolane] | 6.5 | 
27 | CCc1ccc[nH]1 [2-ethyl-1H-pyrrole] | 8.5 | 
28 | CCc1nccnc1OC [2-ethyl-3-methoxypyrazine] | −17.5 | 
29 | CCc1nccnc1C [2-ethyl-3-methylpyrazine] | −7.5 | 
30 | CCc1cnccn1 [2-ethylpyrazine] | 34.5 | 
31 | CCc1cccs1 [2-ethylthiophene] |  | 9.3
32 | COc1nccnc1C [2-methoxy-3-methylpyrazine] | −27.5 | 
33 | Cc1nccnc1CC(C)C [2-methyl-3-(2-methylpropyl)pyrazine] | 1.0 | 
34 | CSc1ccoc1C [2-methyl-3-methylsulfanylfuran] | 12.0 | 
35 | Cc1ccccc1C=O [2-methylbenzaldehyde] | 19.0 | 
36 | CCC(C)C=O (centres unmarked) [2-methylbutanal] | 33.5 | 
37 | Cc1ccco1 [2-methylfuran] | 48.0 | 
38 | CC1OCCC1=O (centres unmarked) [2-methyloxolan-3-one] | 58.4 | 
39 | CC1CCCO1 (centres unmarked) [2-methyloxolane] |  | 82.5
40 | CCC=C(C)C=O [2-methylpent-2-enal] | 36.5 | 
41 | CC(C)CO [2-methylpropan-1-ol] |  | 95.0
42 | C/C=C\C(=O)OCC(C)C [2-methylpropyl (Z)-but-2-enoate] | −5.0 | 

Row | SMILES | Activation (spikes s^−1) | Activation (spikes s−1)
43 | CC(C)COC=O [2-methylpropyl formate] | 48.0 | 
44 | CCC(=O)C(=O)O [2-oxobutanoic acid] | 7.0 | 
45 | CCCC(=O)C(=O)O [2-oxopentanoic acid] | 0.0 | 
46 | CCCCCc1ccccn1 [2-pentylpyridine] | −6.5 | 
47 | CC(C)CC(=O)OCCc1ccccc1 [2-phenylethyl 3-methylbutanoate] | 4.5 | 
48 | C/C=C(\C)C(=O)OCCc1ccccc1 [2-phenylethyl (E)-2-methylbut-2-enoate] | 2.5 | 
49 | CCCC(=O)OCCc1ccccc1 [2-phenylethyl butanoate] | −5.5 | 
50 | CCC(=O)OCCc1ccccc1 [2-phenylethyl propanoate] | −1.5 | 
51 | CC1CC(=O)C(=O)C1C (centres unmarked) [3,4-dimethylcyclopentane-1,2-dione] | 1.5 | 
52 | Cc1cncc(C)c1 [3,5-dimethylpyridine] | 7.5 | 
53 | CC(C)=CCCC(C)CCO (centres unmarked) [3,7-dimethyloct-6-en-1-ol] | 1.5 | 
54 | CC(C)=CCCC(C)CC(=O)O (centres unmarked) [3,7-dimethyloct-6-enoic acid] | 6.0 | 
55 | CC(C)Cc1cccnc1 [3-(2-methylpropyl)pyridine] | 5.5 | 
56 | NCCC(=O)O [3-aminopropanoic acid] | 8.0 | 
57 | CCc1cccnc1 [3-ethylpyridine] | 42.5 | 
58 | CC(=O)C(C)O (centres unmarked) [3-hydroxybutan-2-one] | 0.5 | 
59 | CC(C)=CC=O [3-methylbut-2-enal] | 55.5 | 
60 | CC(C)=CC(=O)O [3-methylbut-2-enoic acid] | 0.5 | 
61 | C=C(C)CCO [3-methylbut-3-en-1-ol] |  | 64.3
62 | CC(C)CCO [3-methylbutan-1-ol] | 51.8 | 
63 | CC(C)CC=O [3-methylbutanal] | 60.2 | 

Row | SMILES | Activation (spikes s^−1) | Activation (spikes s−1)
64 | CC(C)CC#N [3-methylbutanenitrile] | 75.8 | 
65 | CC1=CC(O)CCC1 (centres unmarked) [3-methylcyclohex-2-en-1-ol] | 23.0 | 
66 | CC1=CC(=O)CC1 [3-methylcyclopent-2-en-1-one] | 31.0 | 
67 | CC1CCC(=O)C1=O (centres unmarked) [3-methylcyclopentane-1,2-dione] | 3.5 | 
68 | CCC(C)CC(=O)O (centres unmarked) [3-methylpentanoic acid] | 3.7 | 
69 | Cc1cccc(O)c1 [3-methylphenol] | 44.0 | 
70 | C=CCSC [3-methylsulfanylprop-1-ene] |  | 52.8
71 | Cc1ccsc1 [3-methylthiophene] |  | 33.8
72 | OCCCc1ccccc1 [3-phenylpropan-1-ol] | −3.0 | 
73 | CCc1ccc(C=O)cc1 [4-ethylbenzaldehyde] | 2.5 | 
74 | CC1=C(O)C(=O)OC1C (centres unmarked) [4-hydroxy-2,3-dimethyl-2H-furan-5-one] | 9.0 | 
75 | CC1(O)CCOC(=O)C1 (centres unmarked) [4-hydroxy-4-methyloxan-2-one] | −1.0 | 
76 | CC(=O)CC(C)(C)O [4-hydroxy-4-methylpentan-2-one] | 2.0 | 
77 | Cc1cscn1 [4-methyl-1,3-thiazole] | 111.8 | 
78 | CC(C)=CC1CC(C)CCO1 (centres unmarked) [4-methyl-2-(2-methylprop-1-enyl)oxane] | 1.5 | 
79 | CCCC1OCC(C)O1 (centres unmarked) [4-methyl-2-propyl-1,3-dioxolane] | 13.0 | 
80 | CC(=O)C=C(C)C [4-methylpent-3-en-2-one] | 34.0 | 
81 | CC(C)CC(C)O (centres unmarked) [4-methylpentan-2-ol] | 24.0 | 
82 | CC(=O)CCC(=O)O [4-oxopentanoic acid] | 4.5 | 
83 | CC(=O)CCc1ccccc1 [4-phenylbutan-2-one] | 0.5 | 
